Eleven molecules from patent US8350027B2, “Dual-acting pyrazole antihypertensive agents” (Theravance, Inc., priority 2009, dated 2013) can be followed below.

The target in experiment [1] is T1, human AT1 receptor (Homo sapiens, UniProt P30556).
T1 construct: expressed in transfected cells; host or cells: CHO-K1
T1 sequence (P30556 1-359): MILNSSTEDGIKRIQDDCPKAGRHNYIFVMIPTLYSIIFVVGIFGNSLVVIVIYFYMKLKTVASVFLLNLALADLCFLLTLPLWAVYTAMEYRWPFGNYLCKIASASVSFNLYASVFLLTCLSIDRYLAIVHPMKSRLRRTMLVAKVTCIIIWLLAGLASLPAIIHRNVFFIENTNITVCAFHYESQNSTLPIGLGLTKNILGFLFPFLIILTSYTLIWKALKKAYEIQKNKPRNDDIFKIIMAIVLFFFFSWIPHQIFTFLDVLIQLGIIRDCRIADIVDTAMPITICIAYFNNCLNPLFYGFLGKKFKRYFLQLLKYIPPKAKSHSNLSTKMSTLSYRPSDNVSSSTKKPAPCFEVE
Description: AT1 radioligand binding assay (displacement of [Eu]AngII). To be noted: membranes of CHO-K1 cells expressing cloned human AT1 receptor; values given as lower bounds; read-out: AT1 pKi (converted). The procedure: A. AT1 and AT2 Radioligand Binding Assays
These in vitro assays were used to assess the ability of test compounds to bind to the AT1 and the AT2 receptors.
Membrane Preparation from Cells Expressing Human AT1 or AT2 Receptors
Chinese hamster ovary (CHO-K1) derived cell lines stably expressing the cloned human AT1 or AT2 receptors, respectively, were grown in HAM's-F12 medium supplemented with 10% fetal bovine serum, 10 μg/ml penicillin/streptomycin, and 500 μg/ml geneticin in a 5% CO2 humidified incubator at 37° C. AT2 receptor expressing cells were grown in the additional presence of 100 nM PD123,319 (AT2 antagonist). When cultures reached 80-95% confluence, the cells were washed thoroughly in PBS and lifted with 5 mM EDTA. Cells were pelleted by centrifugation and snap frozen in MeOH-dry ice and stored at −80° C. until further use.
For membrane preparation, cell pellets were resuspended in lysis buffer (25 mM Tris/HCl pH 7.5 at 4° C., 1 mM EDTA, and one tablet of Complete Protease Inhibitor Cocktail Tablets with 2 mM EDTA per 50 mL buffer (Roche cat.#1697498, Roche Molecular Biochemicals, Indianapolis, Ind.)) and homogenized using a tight-fitting Dounce glass homogenizer (10 strokes) on ice. The homogenate was centrifuged at 1000×g, the supernatant was collected and centrifuged at 20,000×g. The final pellet was resuspended in membrane buffer (75 mM Tris/HCl pH 7.5, 12.5 mM MgCl2, 0.3 mM EDTA, 1 mM EGTA, 250 mM sucrose at 4° C.) and homogenized by extrusion through a 20G gauge needle. Protein concentration of the membrane suspension was determined by the method described in Bradford (1976) Anal Biochem. 72:248-54. Membranes were snap frozen in MeOH-dry ice and stored at −80° C. until further use.
Ligand Binding Assay to Determine Compound Affinities for the Human AT1 and AT2 Angiotensin Receptors
Binding assays were performed in 96-well Acrowell filter plates (Pall Inc., cat.#5020) in a total assay volume of 100 μL with 0.2 μg membrane protein for membranes containing the human AT1 receptor, or 2 μg membrane protein for membranes containing the human AT2 receptor in assay buffer (50 mM Tris/HCl pH 7.5 at 20° C., 5 mM MgCl2, 25 μM EDTA, 0.025% BSA). Saturation binding studies for determination of Kd values of the ligand were done using N-terminally Europium-labeled angiotensin-II ([Eu]AngII, H-(Eu-N^1)-Ahx-Asp-Arg-Val-Tyr-Ile-His-Pro-Phe-OH; PerkinElmer, Boston, Mass.) at 8 different concentrations ranging from 0.1 nM to 30 nM. […] Drugs were dissolved to a concentration of 1 mM in DMSO and from there serially diluted into assay buffer. Non-specific binding was determined in the presence of 10 μM unlabeled angiotensin-II. Assays were incubated for 120 minutes in the dark, at room temperature or 37° C., and binding reactions were terminated by rapid filtration through the Acrowell filter plates followed by three washes with 200 μL ice cold wash buffer (50 mM Tris/HCl pH 7.5 at 4° C., 5 mM MgCl2) using a Waters filtration manifold. Plates were tapped dry and incubated with 50 μl DELFIA Enhancement Solution (PerkinElmer cat.#4001-0010) at room temperature for 5 minutes on a shaker. Filter-bound [Eu]AngII was quantitated immediately on a Fusion plate reader (PerkinElmer) using Time Resolved Fluorescence (TRF). Binding data were analyzed by nonlinear regression analysis with the GraphPad Prism Software package (GraphPad Software, Inc., San Diego, Calif.) using the 3-parameter model for one-site competition. The BOTTOM (curve minimum) was fixed to the value for nonspecific binding, as determined in the presence of 10 μM angiotensin II. Ki values for drugs were calculated from observed IC50 values and the Kd value of [Eu]AngII according to the Cheng-Prusoff equation described in Cheng et al. (1973) Biochem Pharmacol. 22 (23):3099-108. Selectivities of test compounds for the AT1 receptor over the AT2 receptor were calculated as the ratio of AT2Ki/AT1Ki. […]

In experiment [2] the target is T2, NEP enzyme (Homo sapiens, UniProt P08473).
T2 construct: purchased R&D Systems, Minneapolis, Minn; 1182-ZN
Description: NEP enzyme inhibition assay (fluorogenic peptide substrate). It counts as biochemical. To be noted: values given as lower bounds; * = prodrugs, may not exhibit NEP activity in an in vitro assay; read-out: NEP pIC50 (converted). The procedure: B. In Vitro Assays for the Quantitation of Inhibitor Potencies (IC50) at Human and Rat NEP, and Human ACE
The inhibitory activities of compounds at human and rat NEP and human ACE were determined using in vitro assays as described below.
Recombinant human NEP and recombinant human ACE were obtained commercially (R&D Systems, Minneapolis, Minn., catalog numbers 1182-ZN and 929-ZN, respectively). The fluorogenic peptide substrate Mca-BK2 (Mca-Arg-Pro-Pro-Gly-Phe-Ser-Ala-Phe-Lys(Dnp)-OH; Johnson et al. (2000) Anal. Biochem. 286: 112-118) was used for the human NEP and ACE assays, and Mca-RRL (Mca-DArg-Arg-Leu-(Dnp)-OH; Medeiros et al. (1997) Braz. J. Med. Biol. Res. 30:1157-1162) was used for the rat NEP assay (both from Anaspec, San Jose, Calif.).
The assays were performed in 384-well white opaque plates at room temperature using the respective fluorogenic peptides at a concentration of 10 μM in assay buffer (50 mM Tris/HCl at 25° C., 100 mM NaCl, 0.01% Tween-20, 1 μM Zn, 0.025% BSA). […] The rat NEP enzyme preparation was used at a concentration that yielded quantitative proteolysis of 3 μM of Mca-RRL within 20 minutes at room temperature.
Test compounds were diluted to 12 concentrations from 10 μM to 20 pM in Assay Buffer. Assays were started by adding 25 μL of enzyme to 12.5 μL of test compound at each of the 12 concentrations. Test compounds were allowed to equilibrate with the enzyme for 10 minutes before 12.5 μL of the fluorogenic substrates were added to initiate the reaction. Reactions were terminated by the addition of 10 μL of 3.6% glacial acetic acid after 20 minutes of incubation.
For sulfhydryl-containing test compounds, the test compounds may be diluted in Assay Buffer containing a 400 μM concentration of tris(2-carboxyethyl)phosphine hydrochloride (Thermo Scientific, Rockford, Ill.) (TCEP). The test compounds are then incubated for 40 minutes at room temperature (to allow for dimer cleavage) before adding the enzyme. Test compounds are then allowed to equilibrate with the enzyme for 20 minutes before adding the fluorogenic substrates. Reactions are terminated as above.
Plates were read on a fluorometer with excitation and emission wavelengths set to 320 nm and 405 nm, respectively. Raw data (relative fluorescence units) were normalized to % activity from the average high readings (no inhibition, 100% enzyme activity) and average low readings (full inhibition, highest inhibitor concentration, 0% enzyme activity) using three standard NEP and ACE inhibitors, respectively. Nonlinear regression of the normalized data was performed using a one site competition model (GraphPad Software, Inc., San Diego, Calif.). Data were reported as pIC50 values.

T2 sequence (P08473 52-750 limits assumed): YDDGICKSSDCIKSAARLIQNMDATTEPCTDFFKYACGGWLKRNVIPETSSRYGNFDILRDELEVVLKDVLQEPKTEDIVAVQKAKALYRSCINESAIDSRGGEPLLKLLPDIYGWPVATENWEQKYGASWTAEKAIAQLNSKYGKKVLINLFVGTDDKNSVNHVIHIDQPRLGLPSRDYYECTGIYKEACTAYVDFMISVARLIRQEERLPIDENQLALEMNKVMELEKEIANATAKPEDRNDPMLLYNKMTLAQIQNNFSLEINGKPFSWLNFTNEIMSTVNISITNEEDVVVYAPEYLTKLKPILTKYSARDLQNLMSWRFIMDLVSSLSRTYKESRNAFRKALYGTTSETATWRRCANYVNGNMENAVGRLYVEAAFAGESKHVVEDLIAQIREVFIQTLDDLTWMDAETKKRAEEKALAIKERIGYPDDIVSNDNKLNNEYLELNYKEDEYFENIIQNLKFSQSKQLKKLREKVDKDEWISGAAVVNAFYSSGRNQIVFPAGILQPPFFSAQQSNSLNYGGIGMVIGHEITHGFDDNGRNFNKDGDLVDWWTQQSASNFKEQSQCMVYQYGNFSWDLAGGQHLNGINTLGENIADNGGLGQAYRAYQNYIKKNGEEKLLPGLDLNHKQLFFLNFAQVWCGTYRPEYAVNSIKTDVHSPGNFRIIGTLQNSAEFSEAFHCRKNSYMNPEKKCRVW

For `CCCc1cc(C(=O)N[C@H](Cc2ccccc2)[C@@H](O)C(=O)OC)nn1Cc1ccc(-c2ccccc2-c2nnn[nH]2)cc1` [Example 3-12, (2R,3R)-2-Hydroxy-4-phenyl-3-({5-propyl-1-[2′-(1H-tetrazol-5-yl)-biphenyl-4-ylmethyl]-1H-pyrazole-3-carbonyl}amino)butyric acid methyl ester], the Ki in experiment [1] was at most 10 nM. Besides, the IC50 in experiment [2] is at most 10000 nM.
With `CCCc1cc(C(=O)N[C@H](Cc2ccccc2)[C@@H](O)C(=O)O)nn1Cc1ccc(-c2ccccc2S(=O)(=O)NC(C)=O)nc1` [Example 13, (2R,3R)-3-({1-[6-(2-Acetylsulfamoylphenyl)pyridin-3-ylmethyl]-5-propyl-1H-pyrazole-3-carbonyl}amino)-2-hydroxy-4-phenylbutyric Acid], the Ki in experiment [1] was at most 100 nM. In addition, the IC50 in experiment [2] was at most 100 nM.
Consider `CCCc1cc(C(=O)N[C@H](CC(C)C)CN(O)C=O)nn1Cc1ccc(-c2ccccc2S(=O)(=O)NC(C)=O)cc1` [Example 6-15, 1-(2′-Acetylsulfamoyl-biphenyl-4-ylmethyl)-5-propyl-1H-pyrazole-3-carboxylic acid {(R)-1-[(formyl-hydroxy-amino)-methyl]-3-methylbutyl}amide], for which the Ki in experiment [1] is at most 10 nM. For the same molecule, in experiment [2], the IC50 is at most 100 nM.
For the molecule `CCCCc1cc(C(=O)N[C@H](Cc2ccccc2)[C@@H](O)C(=O)O)nn1Cc1ccc(-c2ccccc2S(=O)(=O)NC(C)=O)cc1F` [Example 6-11, (2R,3R)-3-{[1-(2′-Acetylsulfamoyl-3-fluorobiphenyl-4-ylmethyl)-5-butyl-1H-pyrazole-3-carbonyl]amino}-2-hydroxy-4-phenylbutyric acid], the Ki in experiment [1] was at most 10 nM. Further, the IC50 in experiment [2] was at most 1000 nM.
Taken in the same sequence, the figures for `CCCc1cc(C(=O)N[C@@H](CS)Cc2ccccc2)nn1Cc1ccc(-c2ccccc2-c2nnn[nH]2)cc1F` [Example 3-2, 1-[3-Fluoro-2′-(1H-tetrazol-5-yl)biphenyl-4-ylmethyl]-5-propyl-1H-pyrazole-3-carboxylic acid ((R)-1-benzyl-2-mercaptoethyl)amide] were at most 10 nM and at most 100 nM.
For `CCCc1cc(C(=O)N[C@H](Cc2ccccc2)[C@@H](O)C(=O)O)nn1Cc1ccc(-c2ccccc2S(=O)(=O)NC(=O)OCC)cc1` [Example 7-7, (2R,3R)-3-(1-((2′-(N-(ethoxycarbonyl)sulfamoyl)biphenyl-4-yl)methyl)-5-propyl-1H-pyrazole-3-carboxamido)-2-hydroxy-4-phenylbutanoic acid], the Ki in experiment [1] was at most 10 nM. Also, the IC50 in experiment [2] was at most 1000 nM.
Taken in the same sequence, the figures for `CCCc1cc(C(=O)N[C@H](Cc2ccccc2)[C@@H](O)C(=O)O)nn1Cc1ccc(-c2ccccc2-c2nnn[nH]2)c(F)c1` [Example 3-10, (2R,3R)-3-(1-((2-Fluoro-2′-(1H-tetrazol-5-yl)biphenyl-4-yl)methyl)-5-propyl-1H-pyrazole-3-carboxamido)-2-hydroxy-4-phenylbutanoic acid] were at most 10 nM and at most 1000 nM.
Consider `CCCc1cc(C(=O)N[C@@H](CC(=O)O)Cc2ccccc2Cl)nn1Cc1cnc(-c2ccccc2-c2nnn[nH]2)nc1` [Example 18, (R)-4-(2-Chlorophenyl)-3-[(5-propyl-1-{2-[2-(1H-tetrazol-5-yl)phenyl]pyrimidin-5-ylmethyl}-1H-pyrazole-3-carbonyl)amino]butyric acid], for which, in experiment [1], the Ki was at most 100 nM. Moreover, in experiment [2], the IC50 is at most 1000 nM.
Consider `CCCc1cc(C(=O)N[C@@H](CC(=O)O)Cc2ccco2)nn1Cc1ccc(-c2ccccc2-c2nnn[nH]2)nc1` [Example 14-11, (R)-4-Furan-2-yl-3-[(5-propyl-1-{6-[2-(1H-tetrazol-5-yl)phenyl]pyridin-3-ylmethyl}-1H-pyrazole-3-carbonyl)amino]butyric acid], for which the Ki in experiment [1] is at most 10 nM. In addition, the IC50 in experiment [2] was at most 1000 nM.
Consider `CCCc1cc(C(=O)N[C@@H](CC(=O)OC)Cc2ccccc2)nn1Cc1ccc(-c2ccccc2-c2nnn[nH]2)cc1` [Example 3-27, (R)-4-Phenyl-3-({5-propyl-1-[2′-(1H-tetrazol-5-yl)-biphenyl-4-ylmethyl]-1H-pyrazole-3-carbonyl}amino)butyric acid methyl ester], for which the Ki in experiment [1] is at most 10 nM. Besides, the IC50 in experiment [2] is at most 10000 nM.
Taken in the same sequence, the figures for `CCOc1cc(C(=O)N[C@@H](CS)CC(C)C)nn1Cc1ccc(-c2ccccc2-c2nnn[nH]2)cc1F` [Example 3-38, 5-Ethoxy-1-[3-fluoro-2′-(1H-tetrazol-5-yl)biphenyl-4-ylmethyl]-1H-pyrazole-3-carboxylic acid ((R)-1-mercaptomethyl-3-methylbutyl)amide] were at most 100 nM and at most 100 nM.
